How the values were obtained:
[1] = target: T1, hOAT1 (Homo sapiens, UniProt Q4U2R8); assay: Substrates uptake assay, MDCKII-OAT1 cells (14C-PAH); assay type: in vitro ADME
T1 sequence (Q4U2R8 1-563): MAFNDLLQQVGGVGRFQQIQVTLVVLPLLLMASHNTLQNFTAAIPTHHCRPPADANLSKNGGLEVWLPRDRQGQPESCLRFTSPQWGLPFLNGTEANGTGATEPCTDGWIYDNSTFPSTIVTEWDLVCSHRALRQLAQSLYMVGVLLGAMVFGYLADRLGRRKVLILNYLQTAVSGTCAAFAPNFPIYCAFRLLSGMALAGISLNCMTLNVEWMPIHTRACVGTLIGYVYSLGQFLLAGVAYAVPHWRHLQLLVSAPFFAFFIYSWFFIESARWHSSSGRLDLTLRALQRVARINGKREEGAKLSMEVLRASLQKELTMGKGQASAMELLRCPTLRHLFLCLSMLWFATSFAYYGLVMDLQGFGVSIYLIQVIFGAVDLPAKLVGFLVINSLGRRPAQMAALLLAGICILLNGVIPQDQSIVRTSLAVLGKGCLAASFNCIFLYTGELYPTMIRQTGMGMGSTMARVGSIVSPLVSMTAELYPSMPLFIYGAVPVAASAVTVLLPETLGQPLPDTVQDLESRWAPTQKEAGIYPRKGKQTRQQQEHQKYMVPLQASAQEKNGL
From the text: Drug transporters mediate the cellular uptake and efflux of their substrates. Therefore, cell lines overexpressing a drug transporter can be utilized to investigate inhibitors of the transporter by assessing changes in substrate uptake. For each drug transporter, we selected a well-characterized inhibitor as the positive control. Radiolabeled substrates were used to indicate the decrease in transport efficiency when the drug transporters were inhibited by PDQ or the control inhibitors.
The concentrations of the control drugs and the substrates were stated in the assay details. Working solutions of the control inhibitors, the radiolabeled substrates, and each dose of PDQ were prepared at 200 times (200×) more concentrated solutions with DMSO for further dilution.
Transporter-overexpressed cell lines. Human organic anion transporter-overexpressed cell lines MDCKII-OAT1 and S2-OAT3, human organic anion transport polypeptide-overexpressed cell lines HEK293A-OATP1B1 and HEK293A-OATP1B3, human organic cation transporter 2-overexpressed cell line S2-OCT2, and human multi-drug resistance protein MDR1 (or P-gp)-overexpressed cell line MDCKII-MDR1 were gifts from Japan Fuji Biomedical Co., Ltd. (Fuji, Shizuoka Prefecture, Japan). Breast cancer resistance protein-overexpressed vesicles (sf9-BCRP vesicle) were purchased from GenoMembrane Co., Ltd. (Yokohama, Kanagawa, Japan).
Substrates uptake assay. In this assay, we studied the inhibition of PDQ against transporters OAT1, OAT3, OCT2, OATP1B1 and OATP1B3 with MDCKII-OAT1, S2-OAT3, S2-OCT2, HEK293A-OATP1B1and HEK293A-OATP1B3 cells, respectively. The radiolabeled substrates for OAT1, OAT3, OATP1B1, OATP1B3 and OCT2 were […], respectively (Table 5). Probenecid ([…]) was the positive control inhibitor of OAT1 and OAT3, while rifampicin ([…]) served as the control drug of OATP1B1 and OATP1B3. For OCT2, we used […] cimetidine to compare with the inhibitory effect of PDQ. Two times (2×) more concentrated working solutions of the drugs and the substrate were prepared with Dulbecco’s phosphate-buffered saline (DPBS, Gibco, Grand Island, NY, USA.). Then, an equal volume of 2× drug solution and 2× radiolabeled substrate solution were mixed as the working mix. All reagents were pre-warmed to 37 °C.
The cells were digested with 0.05% trypsin/EDTA. The density of the single-cell suspension was adjusted to 2.0 × 10^5 cells/mL for S2 cells and to 1.5 × 10^5 cells/mL for MDCK II and HEK293A cells. The cell suspension was then added to the reservoirs of the 24-well plate for culture until full confluency. The medium in the wells was removed, and the wells were washed with DPBS. Then, the plate was incubated for 10 min with pre-warmed DPBS in the wells. After removing DPBS, […] of working mix was added to each well to initiate the substrate uptake process. The reaction time was 5 min for S2-OCT2 cells, while the other four types of cells were incubated with the reaction mix for 2 min. Cold DPBS was used to terminate the substrate transportation. To each well, […] NaOH ([…]) was added to lyse the cells. Then, […] cell lysate was transferred to the counting vials, and 3 mL scintillation cocktail (Aquasol-2, PerkinElmer, Waltham, MA, USA) was added. […] Each sample was replicated three times (N = 3).
In = [100 × (U − U0)/(Uc − U0)]%(3)
The results were expressed as mean ± standard deviation (SD) and analyzed with GraphPad Prism 8.0 software (CA, USA). The IC50 of PDQ was curve-fitted with the FORECAST function.

[2] = target: T2, hOCT2 (Homo sapiens, UniProt O15244); assay: Substrates uptake assay, S2-OCT2 cells (14C-TEA); assay type: in vitro ADME; conditions: 14C-TEA 5 µM, 5 min
T2 construct: host or cells: S2-OCT2
T2 sequence (O15244 1-555): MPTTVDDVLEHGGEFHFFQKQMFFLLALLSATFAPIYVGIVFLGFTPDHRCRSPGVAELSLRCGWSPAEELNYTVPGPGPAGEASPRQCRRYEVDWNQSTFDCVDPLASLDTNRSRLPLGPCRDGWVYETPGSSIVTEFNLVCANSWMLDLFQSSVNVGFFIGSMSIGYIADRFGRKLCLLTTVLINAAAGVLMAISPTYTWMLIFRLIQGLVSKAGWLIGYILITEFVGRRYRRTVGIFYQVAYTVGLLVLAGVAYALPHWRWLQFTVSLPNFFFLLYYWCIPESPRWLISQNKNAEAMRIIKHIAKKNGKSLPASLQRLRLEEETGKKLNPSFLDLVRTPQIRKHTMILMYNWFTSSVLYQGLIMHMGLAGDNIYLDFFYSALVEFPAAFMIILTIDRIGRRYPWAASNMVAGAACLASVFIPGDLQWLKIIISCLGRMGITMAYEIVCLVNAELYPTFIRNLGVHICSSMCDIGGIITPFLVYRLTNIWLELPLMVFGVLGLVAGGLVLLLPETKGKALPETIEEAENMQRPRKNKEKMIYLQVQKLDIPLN

CC(C)(O)[C@@H]1CC[C@@](C)([C@H]2CC[C@]3(C)[C@@H]2[C@H](O)C[C@@H]2[C@@]4(C)CC[C@H](O)C(C)(C)[C@@H]4CC[C@]23C)O1 [PDQ, (20S,24S)-dammar-20,24-epoxy-3β, 12β, 25-triol]
IC50 ([1]; MDCKII-OAT1, 14C-PAH 5 µM, 2 min): > 30 µM | DPM (14C-PAH uptake by OAT1) ([1]; inhibitor 0.1 μM): 540.3±39.2 DPM | DPM (14C-PAH uptake by OAT1) ([1]; inhibitor 0.3 μM): 566.0±44.8 DPM | DPM (14C-PAH uptake by OAT1) ([1]; inhibitor 1 μM): 547.7±68.8 DPM | DPM (14C-PAH uptake by OAT1) ([1]; inhibitor 3 μM): 496.3±38.1 DPM | DPM (14C-PAH uptake by OAT1) ([1]; inhibitor 10 μM): 558.7±19.7 DPM | DPM (14C-PAH uptake by OAT1) ([1]; inhibitor 30 μM): 460.3±5.7 DPM | IC50 [2]: > 30 µM
